Experimental data published in patent publication US20240415918A1, “Polypeptide and its use as a CCK receptor agonist/antagonist” (Centre for Regenerative Medicine & Health, Hong Kong …, priority 2021, published 2024).
Where a SMILES comes first, the peptide text is derived from it. [ ]: non-standard residue; d: D form. The star is where a group is joined. NMeW = CN[C@@H](Cc1c[nH]c2ccccc12)C(=O)O; Phe(3-Br) = N[C@@H](Cc1cccc(Br)c1)C(=O)O; Fmoc = O=C(OCC1c2ccccc2-c2ccccc21)*; Nle = CCCC[C@H](N)C(=O)O

Target: T1, CCK-B receptors (CHO-CCK) (Homo sapiens, UniProt P32239)
T1 construct: expressed in transfected cells; host or cells: CHO (CHO-CCK model cells)
T1 sequence (P32239 1-447): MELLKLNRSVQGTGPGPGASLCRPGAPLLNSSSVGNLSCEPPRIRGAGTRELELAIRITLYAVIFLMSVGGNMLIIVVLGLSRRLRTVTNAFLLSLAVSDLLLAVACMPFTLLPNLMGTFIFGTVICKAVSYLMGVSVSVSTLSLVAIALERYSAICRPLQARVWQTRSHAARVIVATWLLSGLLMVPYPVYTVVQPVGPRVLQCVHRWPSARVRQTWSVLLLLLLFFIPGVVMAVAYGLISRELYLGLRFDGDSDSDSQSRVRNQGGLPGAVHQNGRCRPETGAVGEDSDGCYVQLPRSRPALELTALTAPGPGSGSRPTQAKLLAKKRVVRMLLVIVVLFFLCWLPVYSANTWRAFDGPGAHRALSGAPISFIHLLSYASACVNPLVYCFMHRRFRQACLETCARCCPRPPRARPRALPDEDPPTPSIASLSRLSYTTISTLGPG
Experiment: Calcium flux (Fluo-8) agonist test on CHO-CCK model cells
Format: cell-based
Conditions: for Agonistic Activity (%) at 10 μM: compound at 10 μM, percentage of signal of 20 nM CCK8 alone
Protocol: • To detect changes in intracellular calcium ion concentration after the compound acts on model cells containing CCK-B receptors (CHO-CCK).
• 1. The compound was formulated to a 10 mM mother liquor with DMSO, and then diluted into a series of 9 concentrations with a 3-fold gradient to form a 1000× stock solution.
2.1 Agonist • The compound stock solution was subjected to 200-fold dilution with HHBS buffer to form a 5× working solution.
• 1. Plate CHO-CCK cells in a 96-well plate with media containing 1% FBS, 30,000 cells/well/100 μL, and incubate overnight at 37° C. • 2. Prepare 1×Fluo-8 analysis buffer: mix 9 mL of HHBS, 1 mL of 10× Pluronic F127 Plus and 20 μL of Fluo-8 thoroughly for later use. • 3. Add Fluo-8 dye working solution to the cell plate, 100 μL/well. First incubate in a 37° C. incubator for 30 min, and then take it out and incubate at room temperature in the dark for 30 min. • 4. In the process of incubating cells, the compounds to be detected were prepared with HHBS. • 5.
The agonism/antagonism EC50 of the compound can be obtained by plotting the fitting curve with the agonism/antagonism percentage as Y-axis and the concentration of the compound as X-axis.

SMILES | Agonistic Activity (%) at 10 μM [%] | EC50 (CHO-CCK cells, Fluo-8 calcium flux, 100% control = 20 nM CCK8) [nM]
COC(=O)C[C@H](NC(=O)[C@H](CC[S+](C)[O-])NC(=O)[C@H](N)Cc1c[nH]c2ccccc12)C(=O)N[C@@H](Cc1ccc(I)cc1)C(N)=O (stereo partly drawn) [HT-122, D-Trp-Met(O)-Asp(Ome)-Phe(4-I)-NH2] | 5.16 | 
COC(=O)C[C@H](NC(=O)[C@H](CC[S+](C)[O-])NC(=O)[C@H](N)Cc1c[nH]c2ccccc12)C(=O)N[C@@H](Cc1cc(Cl)cc(Cl)c1)C(N)=O (stereo partly drawn) [HT-123, D-Trp-Met(O)-Asp(Ome)-Phe(3,5-DiCl)-NH2] | 0.84 | 
COC(=O)C[C@H](NC(=O)[C@H](CC[S+](C)[O-])NC(=O)[C@H](N)Cc1c[nH]c2ccccc12)C(=O)N[C@@H](Cc1cc(F)cc(F)c1)C(N)=O (stereo partly drawn) [HT-124, D-Trp-Met(O)t-Asp(Ome)-Phe(3,5-DiF)-NH2] | 0.71 | 
COC(=O)C[C@H](NC(=O)[C@H](CC[S+](C)[O-])NC(=O)[C@H](N)Cc1c[nH]c2ccccc12)C(=O)N[C@@H](Cc1cc(F)c(F)c(F)c1)C(N)=O (stereo partly drawn) [HT-125, D-Trp-Met(O)-Asp(Ome)-Phe(3,4,5-TriF)-NH2] | −4.16 | 
COC(=O)C[C@H](NC(=O)[C@H](CCS(C)(=O)=O)NC(=O)[C@H](N)Cc1c[nH]c2ccccc12)C(=O)N[C@@H](Cc1ccccc1[N+](=O)[O-])C(N)=O [HT-126, D-Trp-Met(O)-Asp(Ome)-Phe(2-NO2)-NH2] | 9.50 | 
COC(=O)C[C@H](NC(=O)[C@H](CCS(C)(=O)=O)NC(=O)[C@H](N)Cc1c[nH]c2ccccc12)C(=O)N[C@@H](Cc1ccccc1F)C(N)=O [HT-127, D-Trp-Met(O2)-Asp(Ome)-Phe(2-F)-NH2] | 1.79 | 
COC(=O)C[C@H](NC(=O)[C@H](CCS(C)(=O)=O)NC(=O)[C@H](N)Cc1c[nH]c2ccccc12)C(=O)N[C@@H](Cc1cccc(Cl)c1)C(N)=O [HT-128, D-Trp-Met(O2)-Asp(Ome)-Phe(3-Cl)-NH2] | 0.73 | 
COC(=O)C[C@H](NC(=O)[C@H](CCS(C)(=O)=O)NC(=O)[C@H](N)Cc1c[nH]c2ccccc12)C(=O)N[C@@H](Cc1cccc(F)c1)C(N)=O [HT-129, D-Trp-Met(O2)-Asp(Ome)-Phe(3-F)-NH2] | −4.28 | 
COC(=O)C[C@H](NC(=O)[C@H](CCS(C)(=O)=O)NC(=O)[C@H](N)Cc1c[nH]c2ccccc12)C(=O)N[C@@H](Cc1cccc(C)c1)C(N)=O [HT-130, D-Trp-Met(O2)-Asp(Ome)-Phe(3-I)-NH2] | 0.86 | 
COC(=O)C[C@H](NC(=O)[C@H](CCS(C)(=O)=O)NC(=O)[C@H](N)Cc1c[nH]c2ccccc12)C(=O)N[C@@H](Cc1cccc(Br)c1)C(N)=O [HT-131, D-Trp-Met(O2)-Asp(Ome)-Phe(3-Br)-NH2] | 5.87 | 
COC(=O)C[C@H](NC(=O)[C@H](CCS(C)(=O)=O)NC(=O)[C@H](N)Cc1c[nH]c2ccccc12)C(=O)N[C@@H](Cc1ccc(C)cc1)C(N)=O [HT-132, D-Trp-Met(O2)-Asp(Ome)-Phe(4-Me)-NH2] | −14.42 | 
COC(=O)C[C@H](NC(=O)[C@H](CCS(C)(=O)=O)NC(=O)[C@H](N)Cc1c[nH]c2ccccc12)C(=O)N[C@@H](Cc1ccc(N=[N+]=[N-])cc1)C(N)=O [HT-133, D-Trp-Met(O2)-Asp(Ome)-Phe(4-N3)-NH2] | 8.66 | 
COC(=O)C[C@H](NC(=O)[C@H](CCS(C)(=O)=O)NC(=O)[C@H](N)Cc1c[nH]c2ccccc12)C(=O)N[C@@H](Cc1ccc(C#N)cc1)C(N)=O [HT-134, D-Trp-Met(O2)-Asp(Ome)-Phe(4-CN)-NH2] | 11.25 | 
COC(=O)C[C@H](NC(=O)[C@H](CCS(C)(=O)=O)NC(=O)[C@H](N)Cc1c[nH]c2ccccc12)C(=O)N[C@@H](Cc1ccc([N+](=O)[O-])cc1)C(N)=O [HT-135, D-Trp-Met(O2)-Asp(Ome)-Phe(4-NO2)-NH2] | 11.52 | 
COC(=O)C[C@H](NC(=O)[C@H](CCS(C)(=O)=O)NC(=O)[C@H](N)Cc1c[nH]c2ccccc12)C(=O)N[C@@H](Cc1ccc(Br)cc1)C(N)=O [HT-136, D-Trp-Met(O2)-Asp(Ome)-Phe(4-Br)-NH2] | 2.69 | 
COC(=O)C[C@H](NC(=O)[C@H](CCS(C)(=O)=O)NC(=O)[C@H](N)Cc1c[nH]c2ccccc12)C(=O)N[C@@H](Cc1ccc(Cl)cc1)C(N)=O [HT-137, D-Trp-Met(O2)-Asp(Ome)-Phe(4-Cl)-NH2] | 2.10 | 
[2H]c1ccc(C[C@H](NC(=O)[C@H](CC(=O)OC)NC(=O)[C@H](CCS(C)(=O)=O)NC(=O)[C@H](N)Cc2c[nH]c3ccccc23)C(N)=O)cc1 [HT-138, D-Trp-Met(O2)-Asp(Ome)-Phe(4-F)-NH2] | −3.84 | 
COC(=O)C[C@H](NC(=O)[C@H](CCS(C)(=O)=O)NC(=O)[C@H](N)Cc1c[nH]c2ccccc12)C(=O)N[C@@H](Cc1ccc(I)cc1)C(N)=O [HT-139, D-Trp-Met(O2)-Asp(Ome)-Phe(4-I)-NH2] | 13.02 | 
COC(=O)C[C@H](NC(=O)[C@H](CCS(C)(=O)=O)NC(=O)[C@H](N)Cc1c[nH]c2ccccc12)C(=O)N[C@@H](Cc1cc(Cl)cc(Cl)c1)C(N)=O [HT-140, D-Trp-Met(O2)-Asp(Ome)-Phe(3,5-DiCl)-NH2] | 10.66 | 
COC(=O)C[C@H](NC(=O)[C@H](CCS(C)(=O)=O)NC(=O)[C@H](N)Cc1c[nH]c2ccccc12)C(=O)N[C@@H](Cc1cc(F)cc(F)c1)C(N)=O [HT-141, D-Trp-Met(O2)-Asp(Ome)-Phe(3,5-DiF)-NH2] | 5.60 | 
COC(=O)C[C@H](NC(=O)[C@H](CCS(C)(=O)=O)NC(=O)[C@H](N)Cc1c[nH]c2ccccc12)C(=O)N[C@@H](Cc1cc(F)c(F)c(F)c1)C(N)=O [HT-142, D-Trp-Met(O2)-Asp(Ome)-Phe(3,4,5-TriF)-NH2] | 0.79 | 
C[S+]([O-])CC[C@H](NC(=O)[C@H](N)Cc1c[nH]c2ccccc12)C(=O)N[C@@H](CC(=O)OCCNc1cccc2c(O)cccc12)C(=O)N[C@@H](Cc1ccccc1[N+](=O)[O-])C(N)=O (stereo partly drawn) [HT-143, D-Trp-Met(O)-Asp(EDANS)-Phe(2-NO2)-NH2] | 4.33 | 
C[S+]([O-])CC[C@H](NC(=O)[C@H](N)Cc1c[nH]c2ccccc12)C(=O)N[C@@H](CC(=O)OCCNc1cccc2c(O)cccc12)C(=O)N[C@@H](Cc1cccc(Cl)c1)C(N)=O (stereo partly drawn) [HT-145, D-Trp-Met(O)t-Asp(EDANS)-Phe(3-Cl)-NH2] | −5.52 | 
C[S+]([O-])CC[C@H](NC(=O)[C@H](N)Cc1c[nH]c2ccccc12)C(=O)N[C@@H](CC(=O)OCCNc1cccc2c(O)cccc12)C(=O)N[C@@H](Cc1ccc(N=[N+]=[N-])cc1)C(N)=O (stereo partly drawn) [HT-150, D-Trp-Met(O)-Asp(EDANS)-Phe(4-N3)-NH2] | 0.81 | 
C[S+]([O-])CC[C@H](NC(=O)[C@H](N)Cc1c[nH]c2ccccc12)C(=O)N[C@@H](CC(=O)OCCNc1cccc2c(O)cccc12)C(=O)N[C@@H](Cc1ccc(F)cc1)C(N)=O (stereo partly drawn) [HT-155, D-Trp-Met(O)-Asp(EDANS)-Phe(4-F)-NH2] | 0.50 | 
C[S+]([O-])CC[C@H](NC(=O)[C@H](N)Cc1c[nH]c2ccccc12)C(=O)N[C@@H](CC(=O)OCCNc1cccc2c(O)cccc12)C(=O)N[C@@H](Cc1cc(F)c(F)c(F)c1)C(N)=O (stereo partly drawn) [HT-159, D-Trp-Met(O)-Asp(EDANS)-Phe(3,4,5-TriF)-NH2] | 4.93 | 
CS(=O)(=O)CC[C@H](NC(=O)[C@H](N)Cc1c[nH]c2ccccc12)C(=O)N[C@@H](CC(=O)OCCNc1cccc2c(O)cccc12)C(=O)N[C@@H](Cc1cccc(F)c1)C(N)=O [HT-163, D-Trp-Met(O2)-Asp(EDANS)-Phe(3-F)-NH2] | 2.64 | 
Cc1ccc(C[C@H](NC(=O)[C@H](CC(=O)OCCNc2cccc3c(O)cccc23)NC(=O)[C@H](CCS(C)(=O)=O)NC(=O)[C@H](N)Cc2c[nH]c3ccccc23)C(N)=O)cc1 [HT-166, D-Trp-Met(O2)-Asp(EDANS)-Phe(4-Me)-NH2] | 3.59 | 
CCCC[C@H](NC(=O)[C@H](Cc1c[nH]c2ccccc12)N(C)C(=O)OCC1c2ccccc2-c2ccccc21)C(=O)N[C@@H](CC(=O)O)C(=O)N[C@@H](Cc1cccc(Br)c1)C(N)=O [HT-199, Fmoc-(N-Me-Trp)-Nle-Asp-Phe(3-Br)-NH2] (Fmoc-[NMeW][Nle]D[Phe(3-Br)]-NH2) |  | 1.47
